Results reported in PubChem BioAssay (NCI).
Where “and” joins values, the source holds several entries; their conditions need not be identical. Identical values can stand only once.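 Values below derive from 48-hour exposures of cells grown in 96-well plates, with endpoints linearly interpolated between the two concentrations bracketing the appropriate inhibition level. GI50 is the concentration that inhibits growth by half. TGI is the concentration that stops growth completely.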

Columns and labels:
Assay in all cases: NCI tumour cell line growth inhibition, 48 h
TK-10 renal = test system: TK-10 renal
RPMI-8226 leukemia = test system: RPMI-8226 leukemia
SNB-75 CNS = test system: SNB-75 CNS
SF-539 CNS = test system: SF-539 CNS
OVCAR-8 ovarian = test system: OVCAR-8 ovarian
SK-MEL-28 melanoma = test system: SK-MEL-28 melanoma
A549 NSCLC = test system: A549 NSCLC
MCF7 breast = test system: MCF7 breast
MDA-N = test system: MDA-N
DU-145 prostate = test system: DU-145 prostate

Compound | TGI (TK-10 renal) [µM] | GI50 (RPMI-8226 leukemia) | TGI (RPMI-8226 leukemia) | TGI (SNB-75 CNS) | TGI (SF-539 CNS) [µM] | TGI (OVCAR-8 ovarian) | GI50 (SK-MEL-28 melanoma) | TGI (SK-MEL-28 melanoma) | GI50 (A549 NSCLC) | TGI (A549 NSCLC) | TGI (MCF7 breast) | GI50 (MDA-N) | TGI (MDA-N) | TGI (DU-145 prostate)
CC1OC(OC2C(OC(=O)[C@]34CCC(C)(C)C[C@H]3C3=CC[C@@H]5[C@@]6(C)CC[C@H](OC7OC(C(=O)O)C(O)C(OC8OCC(O)C(O)C8O)C7O)C(C)(C)[C@@H]6CC[C@@]5(C)[C@]3(C)CC4)OCC(O)C2O)C(O)C(OC2OCC(O)C(O)C2O)C1OC1OCC(O)C(OC2OCC(O)C(O)C2O)C1O (some centres undefined) | 24 | 5.62 µM and 16.9 µM | 19.8 µM and 35.3 µM | 29.8 µM and 39.3 µM | 68.7 | 27.7 µM and 43.1 µM | 5.5 µM and 16.3 µM | 15.9 µM and 30.8 µM | 5.06 µM and 14.3 µM | 16.9 µM and 28.4 µM | 50.7 µM and > 100 µM | 7.14 µM and 16.4 µM | 19.8 µM and 31.8 µM | 40.6 µM and 85.1 µM
Cc1c2c(OCCN3CCCCC3)nn(C)c(=O)c2c(C)n1-c1ccccc1 | > 100 | – | 95.1 µM | > 100 µM | 74.9 | > 100 µM | – | 84.7 µM | – | > 100 µM | > 100 µM | – | > 100 µM | > 100 µM
C=C1C(=O)O[C@@H]2C=C(C)C3=CC(=O)[C@](C)(C[C@H](OC(=O)/C(C)=C\C)[C@@H]12)O3 | 2.19 | – | 0.938 µM | 26.3 µM | 6.09 | 2.18 µM | – | 3.03 µM | – | 10.1 µM | 1.63 µM | – | 1.49 µM | 15.8 µM
